Laboratory results as given in patent US20070009377A1, “Methods for Reducing Pathogens in Biological Samples” (priority 2005, published 2007).

Legend:
[1] = tested on: apheresis platelet concentrates; assay: In vitro cell quality tests of stored platelets after riboflavin + UV light treatment (clinical study one); type: cell-based, human
Description: The platelet concentrate with a volume of 250 mL was transferred into a 3-litre polyolefin bag (Sengewald, Rohrdorf, Germany), followed by addition of 27 mL sterile 500 μM riboflavin so that the final concentration in the product was ca. 50 μM. The platelet products were then exposed to UV light (phosphor 265-370 nm) at either a medium dose level (7.2 J/ml) or high dose level (12.4 J/ml). Total illumination time varied from approximately 5-10 minutes with agitation at a temperature of 25-30° C. After treatment, platelet products were transferred into a citrated polyvinyl chloride ELP™ bag (Gambro BCT, Lakewood, Colo.). The treated and control PCs were stored for an additional 5 days at 20-24° C. under standard blood bank conditions. Control platelet products were prepared in the same manner as the treated counterparts except no riboflavin was added and no UV light treatment was performed.
Platelet samples were taken for lab tests at day 0, 3 and 5 of platelet storage using aseptic technique and analysis was completed within 2 hours. The in vitro cell quality tests for platelet count, swirl score, pH, pO2, pCO2, lactate and glucose were performed per standard operating procedures (SOPs) of the trial site. Hypotonic shock response (HSR) and P-selectin expression were measured as described by Ruane et al. (Ruane P H, Edrich R, Gampp D et al. Photochemical inactivation of selected viruses and bacteria in platelet concentrates using riboflavin and light. Transfusion 2004;44:877-85.)
Following Ethical Committee approval and notification of the MCC, the competent authority of South Africa, a total of 18 platelet products were collected with yields ranging from 2.9 to 3.8×10^11 platelets using standard Trima apheresis procedures. Products were treated in a polyolefin container, Sengewald bag, with UV light at either a medium UV dose (7.2 J/ml; N=5) or a high UV dose (12.4 J/ml; N=6) in the presence of 50 μM riboflavin on the day of collection. An additional seven products served as controls which were not treated with UV light. All treated and control PC products were transferred to and stored in ELP™ bags under normal blood bank conditions for 5 days post-apheresis collection. At day 0 (pre-treatment), day 3 and day 5 of storage, the samples from all PC products were measured for pH, pO2, pCO2, lactate and glucose concentrations, P-selectin, HSR and platelet swirl. […] UV treatment also accelerated an increase in P-selectin expression and decreases in HSR and swirl score during platelet storage. It appears that the severity of these changes during platelet storage were in direct proportion to the levels of UV dose applied.

platelets = assay: In vivo radiolabeled platelet recovery after infusion into the autologous donor (clinical study one); design: species or system human; conditions: after 5-day storage
Description: At the end of the 5-day storage period, a small aliquot of the platelets was radiolabeled with ^111Indium, according to the study site's SOP (in agreement with local and international standards for radiolabeling of human platelets). The labeling procedure was performed after formation of ^111In-tropolonate through mixing of ^111Indium chloride (Amersham) with tropolone. If the pH of the platelet samples to be labeled was>6.5, it was brought down to 6.5 to prevent irreversible aggregation of platelets during pelleting.
After washing and resuspension in plasma, a radiolabeled aliquot was infused into the autologous donor. The total radioactivity that was given to a subject in this study was less than 8 MBq. Blood samples for radioactivity counting were collected 15 minutes, 1 hour and 2-3 hours after infusion, twice (AM and PM) on day 1 post-infusion and once on days 2-6 post-infusion. After correcting for 2-hour radioelution as described by Holme, et al., (Holme S, Heaton A, Roodt J. Concurrent label method with 111In and 51Cr allows accurate evaluation of platelet viability of stored platelet concentrates. Br J Haematol 1993;84:717-23.) in vivo radiolabeled platelet recovery and survival values were calculated by the COST computer program using the multiple-hit model. […]

Question: How did the pO2 ([1]; 50 μM riboflavin + high UV dose (12.4 J/ml), Day 0 (pre-treatment)) turn out when `Cc1cc2nc3c(=O)[nH]c(=O)nc-3n(C[C@H](O)[C@H](O)[C@H](O)CO)c2cc1C` [riboflavin, 7,8-dimethyl-10-ribityl isoalloxazine] was run?
Answer: The pO2 was 95 +/− 19 mmHg.

Question: What about the pO2 ([1]; 50 μM riboflavin + high UV dose (12.4 J/ml), Day 3) of the same compound?
Answer: Its pO2 is 83 +/− 22 mmHg.

Question: What about the pO2 ([1]; 50 μM riboflavin + high UV dose (12.4 J/ml), Day 5) of the same compound?
Answer: The pO2 was 88 +/− 30 mmHg.

Question: And the pO2 ([1]; 50 μM riboflavin + medium UV dose (7.2 J/ml), Day 0 (pre-treatment))?
Answer: Its pO2 is 60 +/− 15 mmHg.

Question: And the pO2 ([1]; 50 μM riboflavin + medium UV dose (7.2 J/ml), Day 3)?
Answer: Its pO2 is 82 +/− 24 mmHg.

Question: What about the pO2 ([1]; 50 μM riboflavin + medium UV dose (7.2 J/ml), Day 5) of the same compound?
Answer: The pO2 was 68 +/− 17 mmHg.

Question: What about the “average in vivo recovery of infused platelets” value (platelets; 50 μM riboflavin + high dose of UV light (12.4 J/ml)) of the same compound?
Answer: The value was 14%.

Question: What about the “average in vivo recovery of infused platelets” value (platelets; 50 μM riboflavin + medium dose of UV light (7.2 J/ml)) of the same compound?
Answer: The value was 30%.
